Read-outs that look alike come from different tables or passages of the source. Positions of bridges follow the written chain, without caps; N, C: chain ends. Residues, ends and D or L forms follow the SMILES beside them.
Key:
[1] = test system: Pseudomonas aeruginosa (PSA, ATCC 27883); assay: Synergy checkerboard assay (FIC index); type: cell-based; conditions: Pseudomonas aeruginosa (ATCC 27883)
[2] = type: in vivo; conditions: for Average Body Weight / Average Body Weight Growth Rate: Female (M40~M42)
Description: In-vivo toxicity study of IFX301. 1. Dose formulations were prepared freshly on dosing day. Doses started from the low to high levels and staggered with 4 h up to 24 h between doses with animals. A dose was escalated or decreased if the test compound appears to be generally tolerated well or not. The cage side observation was done twice daily. The clinical observation was conducted prior to randomization and dosing daily thereafter (at least hourly for the first 4 hours after dosing) and prior to termination for mortality, morbidity check, and clinical signs. Bodyweight was monitored prior to randomization and dosing, daily thereafter, and prior to termination. Gross necropsy was done for all scheduled animals on day 8. Full gross necropsy was conducted, this includes a macroscopic examination of the external surface of the body, all orifices, cranial cavity, the external surface of the brain and cut surfaces of the spinal cord, and the cranial, thoracic, abdominal and pelvic cavities and their viscera, cervical areas, carcass, and genitalia; The animal identification and selected tissues (sex appropriate) identified in Table 38 were sampled and preserved in 10% neutral buffered formalin (NBF). For unscheduled animals (found dead and moribund sacrificed animals): gross necropsy was conducted, and tissues were preserved for possible histology to determine the cause of death. Histopathology was done for adrenal glands, brain, cecum, colon, duodenum, heart, ileum, jejunum, kidneys, liver, rectum, spleen, stomach, thymus lung, pancreas and the testis (ovaries); total 16 tissues/mouse.

[3] = test system: Methicillin-resistant Staphylococcus aureus MRSA (ATCC BAA-1556); conditions: ATCC BAA-1556
[4] = test system: Pseudomonas aeruginosa (PSA, ATCC 27883); conditions: ATCC 27883
MRSA (ATCC BAA-1556) = conditions: MRSA (ATCC BAA-1556)
[5] = test system: Klebsiella pneumoniae (KPC, ATCC BAA-1705); conditions: Klebsiella pneumoniae (ATCC BAA-1705)
[6] = test system: Escherichia coli (E. Coli, ATCC 25922); conditions: Escherichia coli (ATCC 25922)
[7] = test system: Klebsiella pneumoniae (KPC, ATCC BAA-1705); conditions: ATCC BAA-1705
[8] = test system: Escherichia coli (E. Coli, ATCC 25922); conditions: ATCC 25922
[9] = test system: Escherichia coli (ATCC 25922); type: cell-based
Description: (§1) All bacteria pathogens tested clinically reported multi-drug resistant strains. The antibacterial activity was tested against Gram-negative strains namely; Pseudomonas aeruginosa (PSA), Klebsiella pneumoniae (KPC), Escherichia coli (E. coli) and Gram-positive Methicillin-resistant Staphylococcus aureus (MRSA). The minimum inhibitory concentration (MIC) is the lowest concentration of the antibiotic that inhibits microbial growths. MIC is determined by visual inspection or use of spectrophotometer plate reader to determine media turbidity. On the other hand, the minimum bactericidal concentration (MBC) is the lowest concentration that kills […] of bacterial growth. Cytotoxicity of peptides in the hepatic cell line, human skin fibroblast cell line, heart/myocardium cells, and human lung fibroblast cells is shown in FIGS. 36-46). […] (IFX-315)-Au-NP with antibiotics are shown in FIGS. 49-58 when the gold nanoparticles are formed by the peptide followed by addition of the antibiotic. […] (IFX-301) with antibiotics (1:1 ratio) first and then used in the synthesis of Au-NP in antibacterial activities is shown in FIGS. 59-68.
(§2) The MBC is identified by determining the lowest concentration of antibacterial agent that reduces the viability (concentration of peptides necessary to achieve a bactericidal effect) of the initial bacterial inoculum by ≥99.9%.

[10] = test system: Methicillin-resistant Staphylococcus aureus MRSA (ATCC BAA-1556); type: cell-based
Description: as §1, §2

[11] = test system: Methicillin-resistant Staphylococcus aureus MRSA (ATCC BAA-1556); conditions: ATCC BAA-1556; remark: listed apart in the source
[12] = test system: Pseudomonas aeruginosa (ATCC 27883); conditions: ATCC 27883
[13] = test system: Escherichia coli (ATCC 25922); conditions: ATCC 25922
[14] = test system: Klebsiella pneumoniae (ATCC BAA-1705); conditions: ATCC BAA-1705
[15] = test system: Pseudomonas aeruginosa (ATCC 27883); type: cell-based; conditions: ATCC 27883
Description: as §1, §2

[16] = Table 25, peptide in combination with antibiotics
[17] = Average, ICR mice, IP, 25 mg/kg, Male (M49~M51)
[18] = Average, ICR mice, IP, 50 mg/kg, Male (M43~M45)
[19] = Female ICR mice, MTD study, IP route, 10 mg/kg & 5 mL/kg, M40~M42
[20] = Female ICR mice, MTD study, IP route, 25 mg/kg & 5 mL/kg, M52~M54
[21] = Female ICR mice, MTD study, IP route, 50 mg/kg & 5 mL/kg, M46~M48
[22] = peptide part of FIC antibiotic/peptides, in combination with antibiotic

What does the source list for `N=C(N)NCCC[C@@H]1NC(=O)[C@H](CCCNC(=N)N)NC(=O)[C@H](CCCNC(=N)N)NC(=O)[C@H](Cc2c[nH]c3ccccc23)NC(=O)[C@H](Cc2c[nH]c3ccccc23)NC(=O)[C@H](Cc2c[nH]c3ccccc23)NC(=O)[C@H](Cc2c[nH]c3ccccc23)NC(=O)[C@H](CCCNC(=N)N)NC(=O)[C@H](CCCNC(=N)N)NC1=O` [IFX-301, [R5W4]]?
MIC (peptide) ([1]; Table 25, peptide alone): MIC = 32 ug/ml; FIC (peptide) [1, 16]: FIC = 8 ug/ml; Adrenal glands/Body Coefficient [2, 17]: 0.03%; Heart/Body Coefficient [2, 17]: 0.57%; Kidneys/Body Coefficient [2, 17]: 2.15%; Liver/Body Coefficient [2, 17]: 8.64%; Lung/Body Coefficient [2, 17]: 1.00%; Spleen/Body Coefficient [2, 17]: 0.46%; Testes/Body Coefficient [2, 17]: 0.62%; Thymus/Body Coefficient [2, 17]: 0.31%; Heart/Body Coefficient [2, 18]: 0.49%; Kidneys/Body Coefficient [2, 18]: 2.06%; Liver/Body Coefficient [2, 18]: 8.27%; Lung/Body Coefficient [2, 18]: 0.72%; Spleen/Body Coefficient [2, 18]: 0.68%; Testes/Body Coefficient [2, 18]: 0.69%; Thymus/Body Coefficient [2, 18]: 0.25%; Adrenal glands/Body Coefficient [2, 19]: 0.04%; Average Body Weight before Necropsy [2, 19]: 25 g; Brain/Body Coefficient [2, 19]: 1.77%; Heart/Body Coefficient [2, 19]: 0.51%; Kidneys/Body Coefficient [2, 19]: 1.46%; Liver/Body Coefficient [2, 19]: 6.51%; Lung/Body Coefficient [2, 19]: 0.89%; Ovaries/Body Coefficient [2, 19]: 0.08%; Spleen/Body Coefficient [2, 19]: 0.60%; Thymus/Body Coefficient [2, 19]: 0.48%; Adrenal glands/Body Coefficient [2, 20]: 0.05%; Average Body Weight before Necropsy [2, 20]: 23 g; Heart/Body Coefficient [2, 20]: 0.53%; Kidneys/Body Coefficient [2, 20]: 1.73%; Liver/Body Coefficient [2, 20]: 7.85%; Lung/Body Coefficient [2, 20]: 1.13%; Ovaries/Body Coefficient [2, 20]: 0.09%; Spleen/Body Coefficient [2, 20]: 0.64%; Thymus/Body Coefficient [2, 20]: 0.49%; Adrenal glands/Body Coefficient [2, 21]: 0.03%; Average Body Weight before Necropsy [2, 21]: 21 g; Heart/Body Coefficient [2, 21]: 0.49%; Kidneys/Body Coefficient [2, 21]: 1.84%; Liver/Body Coefficient [2, 21]: 7.82%; Lung/Body Coefficient [2, 21]: 0.75%; Ovaries/Body Coefficient [2, 21]: 0.08%; Spleen/Body Coefficient [2, 21]: 0.81%; Thymus/Body Coefficient [2, 21]: 0.35%; Average Body Weight ([2]; ICR mice, IP, 10 mg/kg, Day 1): 21 g; Average Body Weight ([2]; ICR mice, IP, 10 mg/kg, Day 2): 21 g; Average Body Weight Growth Rate ([2]; ICR mice, IP, 10 mg/kg, Day 2): 3.23%; Average Body Weight ([2]; ICR mice, IP, 10 mg/kg, Day 3): 22 g; Average Body Weight Growth Rate ([2]; ICR mice, IP, 10 mg/kg, Day 3): 4.84%; Average Body Weight ([2]; ICR mice, IP, 10 mg/kg, Day 4): 23 g; Average Body Weight Growth Rate ([2]; ICR mice, IP, 10 mg/kg, Day 4): 11.29%; Average Body Weight ([2]; ICR mice, IP, 10 mg/kg, Day 5): 24 g; Average Body Weight Growth Rate ([2]; ICR mice, IP, 10 mg/kg, Day 5): 16.13%; Average Body Weight ([2]; ICR mice, IP, 10 mg/kg, Day 6): 24 g; Average Body Weight Growth Rate ([2]; ICR mice, IP, 10 mg/kg, Day 6): 16.13%; Average Body Weight ([2]; ICR mice, IP, 10 mg/kg, Day 7): 24 g; Average Body Weight Growth Rate ([2]; ICR mice, IP, 10 mg/kg, Day 7): 17.74%; Average Body Weight ([2]; ICR mice, IP, 10 mg/kg, Day 8): 25 g; Average Body Weight Growth Rate ([2]; ICR mice, IP, 10 mg/kg, Day 8): 20.97%; clinical observation ([2]; mouse, in vivo): did not show any abnormalities; Average Body Weight before Necropsy ([2]; mouse, in vivo, ip, 10 mg/kg): 27 g; Average Body Weight before Necropsy ([2]; mouse, in vivo, ip, 25 mg/kg): 26 g; Average Body Weight before Necropsy ([2]; mouse, in vivo, ip, 50 mg/kg): 26 g; MRSA (ATCC BAA-1556) MIC [3]: 4 µg/mL; Pseudomonas aeruginosa (ATCC 27883) MIC [4]: 32 µg/mL; MIC (peptide) (MRSA (ATCC BAA-1556); Table 25, peptide alone): MIC = 4 ug/ml; FIC (peptide) (MRSA (ATCC BAA-1556); [16]): FIC = 1 ug/ml; MIC (peptide) ([5]; Table 25, peptide alone): MIC = 32 ug/ml; FIC (peptide) [5, 16]: FIC = 8 ug/ml; MIC (peptide) ([6]; Table 25, peptide alone): MIC = 16 ug/ml; FIC (peptide) [6, 16]: FIC = 4 ug/ml

For `N=C(N)NCCC[C@@H]1NC(=O)[C@H](CCCNC(=N)N)NC(=O)[C@H](CCCNC(=N)N)NC(=O)[C@H](CCCNC(=N)N)NC(=O)[C@H](Cc2c[nH]c3ccccc23)NC(=O)[C@H](Cc2c[nH]c3ccccc23)NC(=O)[C@H](Cc2c[nH]c3ccccc23)NC(=O)[C@H](Cc2c[nH]c3ccccc23)NC(=O)[C@H](CCCNC(=N)N)NC(=O)[C@H](CCCNC(=N)N)NC1=O` [IFX-318, [R6W4]] (cyclo(RRRRRRWWWW)), which FIC peptides [1, 22] is on record?
The FIC peptides was “FIC = 4 ug/ml”.

What about the “Klebsiella pneumoniae (ATCC BAA-1705) MIC” value [7] of the same compound?
Its value is 64 µg/mL.

What about the “Escherichia coli (ATCC 25922) MIC” value [8] of the same compound?
The value was 32 µg/mL.

What about the FIC peptides (MRSA (ATCC BAA-1556); [22]) of the same compound?
Its FIC peptides is “FIC = 2 μg/ml”.

And the FIC peptides [5, 22]?
The FIC peptides was “FIC = 16 μg/ml”.

And the FIC peptides [6, 22]?
The FIC peptides was “FIC = 8 μg/ml”.

What does the source list for `N=C(N)NCCC[C@H](NC(=O)[C@H](CCCNC(=N)N)NC(=O)[C@H](CCCNC(=N)N)NC(=O)[C@H](CCCNC(=N)N)NC(=O)[C@H](CS)NC(=O)[C@H](Cc1c[nH]c2ccccc12)NC(=O)[C@H](Cc1c[nH]c2ccccc12)NC(=O)[C@H](Cc1c[nH]c2ccccc12)NC(=O)[C@@H](N)Cc1c[nH]c2ccccc12)C(=O)N[C@@H](CS)C(=O)O` [IFX-332] (H-WWWWCRRRRC-OH)?
E. coli (ATCC 25922) MBC [9]: 256 µg/mL; MRSA (ATCC BAA-1556) MBC [10]: 128 µg/mL; MRSA (ATCC BAA-1556) MIC [11]: 64 µg/mL; PSA (ATCC 27883 MIC) [12]: 256 µg/mL; E. coli (ATCC 25922) MIC [13]: 128 µg/mL; KPC (ATCC BAA-1705) MIC [14]: 512 µg/mL

Which results are given for `N=C(N)NCCC[C@@H]1NC(=O)[C@H](CCCNC(=N)N)NC(=O)[C@H](CCCNC(=N)N)NC(=O)[C@H](CCCNC(=N)N)NC(=O)[C@@H](NC(=O)[C@H](Cc2c[nH]c3ccccc23)NC(=O)[C@H](Cc2c[nH]c3ccccc23)NC(=O)[C@H](Cc2c[nH]c3ccccc23)NC(=O)[C@@H](N)Cc2c[nH]c3ccccc23)CSSC[C@@H](C(=O)O)NC1=O` [IFX-334] (H-WWWWCRRRRC-OH; disulfide 5-10)?
E. coli (ATCC 25922) MBC [9]: 64 µg/mL; MRSA (ATCC BAA-1556) MBC [10]: 64 µg/mL; PSA (ATCC 27883) MBC [15]: 256 µg/mL; MRSA (ATCC BAA-1556) MIC [11]: 32 µg/mL; PSA (ATCC 27883 MIC) [12]: 256 µg/mL; E. coli (ATCC 25922) MIC [13]: 32 µg/mL; KPC (ATCC BAA-1705) MIC [14]: 256 µg/mL
